Experimental data as given in ChEMBL document CHEMBL1201862, “PubChem BioAssay data set” (2004).
“And” between values parts separate entries of the source, which are not always exact repeats. Identical values can stand only once. The source made the active and inactive calls.

Columns and labels:
Paired box protein Pax-8 = Paired box protein Pax-8 (Homo sapiens, UniProt Q06710); test: PAX8 transcriptional activity inhibition in RMG-I – RMG-I cells, luciferase, cherry-pick, dose response (AID 687027); format: functional, cell-based;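 note: luciferase reporter driven by Pax8 target thyroperoxidase promoter measured by SteadyGlo luminescence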
Paired box protein Pax-8, sequence (Q06710 whole entry): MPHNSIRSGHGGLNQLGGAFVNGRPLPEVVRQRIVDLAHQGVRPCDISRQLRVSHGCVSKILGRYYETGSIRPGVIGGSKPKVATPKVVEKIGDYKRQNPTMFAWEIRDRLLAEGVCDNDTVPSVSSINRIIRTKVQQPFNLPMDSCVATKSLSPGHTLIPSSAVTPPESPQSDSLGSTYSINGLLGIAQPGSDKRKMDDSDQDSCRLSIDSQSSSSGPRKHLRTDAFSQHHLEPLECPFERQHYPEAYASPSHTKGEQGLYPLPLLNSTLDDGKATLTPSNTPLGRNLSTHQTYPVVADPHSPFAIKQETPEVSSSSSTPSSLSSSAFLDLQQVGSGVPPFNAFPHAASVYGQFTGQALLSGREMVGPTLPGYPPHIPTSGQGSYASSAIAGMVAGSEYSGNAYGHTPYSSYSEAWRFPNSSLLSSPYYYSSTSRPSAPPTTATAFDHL

[1] = OVCAR8 cell viability loss – plate reader, dry powder samples, PAX8 project, dose response (AID 743197); format: functional, cell-based; conditions: OVCAR-8
[2] = toxicity toward immortalized ovarian surface epithelium – cell-based, plate reader, dry powder samples, cytotoxicity control for PAX8 inhibitor project, dose response (AID 743045); format: functional
[3] = IGROV1 cell killing – plate reader, dry powder samples, PAX8 inhibitor project, dose response (AID 743043); format: functional, cell-based; conditions: IGROV-1
[4] = OVCAR-3 cell viability loss – plate reader, dry powder samples, PAX8 inhibitor project, dose response (AID 743044); format: functional, cell-based
[5] = CMV-driven luciferase expression suppression in HEK293 – cell-based, luminescence, dry powder, counter-screen for Pax8 inhibitor project, dose response (AID 743020); format: functional
[6] = inhibition of Env-driven cell fusion – HIV entry, plate reader, dry powder, dose response (AID 687023); format: functional, cell-based
[7] = viability loss in CEM21 cells – cell-based, plate reader, dry powder, cytotoxicity control, dose response (AID 687026); format: functional
[8] = molecular target: NAD-dependent protein deacylase sirtuin-5, mitochondrial (Homo sapiens, UniProt Q9NXA8); test: blockers of sirtuin-5 peptide desuccinylation – biochemical, fluorescence imaging, cherry-pick, set 6, dose response (AID 720597)
NAD-dependent protein deacylase sirtuin-5, mitochondrial, sequence (Q9NXA8 whole entry): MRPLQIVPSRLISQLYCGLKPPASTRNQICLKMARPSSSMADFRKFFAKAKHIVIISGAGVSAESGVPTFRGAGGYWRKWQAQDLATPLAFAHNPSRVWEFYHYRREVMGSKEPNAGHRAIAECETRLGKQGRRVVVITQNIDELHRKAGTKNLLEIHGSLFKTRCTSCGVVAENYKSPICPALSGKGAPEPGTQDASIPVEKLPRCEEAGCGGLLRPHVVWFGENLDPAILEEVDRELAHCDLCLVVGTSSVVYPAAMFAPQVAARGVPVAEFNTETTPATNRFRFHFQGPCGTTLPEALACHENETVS

[9] = molecular target: Protein disulfide-isomerase (Homo sapiens, UniProt P07237); test: inhibition of PDI-mediated insulin reduction – biochemical, turbidity, dry powder samples, set 2, confirmation (AID 652146)
Protein disulfide-isomerase, sequence (P07237 whole entry): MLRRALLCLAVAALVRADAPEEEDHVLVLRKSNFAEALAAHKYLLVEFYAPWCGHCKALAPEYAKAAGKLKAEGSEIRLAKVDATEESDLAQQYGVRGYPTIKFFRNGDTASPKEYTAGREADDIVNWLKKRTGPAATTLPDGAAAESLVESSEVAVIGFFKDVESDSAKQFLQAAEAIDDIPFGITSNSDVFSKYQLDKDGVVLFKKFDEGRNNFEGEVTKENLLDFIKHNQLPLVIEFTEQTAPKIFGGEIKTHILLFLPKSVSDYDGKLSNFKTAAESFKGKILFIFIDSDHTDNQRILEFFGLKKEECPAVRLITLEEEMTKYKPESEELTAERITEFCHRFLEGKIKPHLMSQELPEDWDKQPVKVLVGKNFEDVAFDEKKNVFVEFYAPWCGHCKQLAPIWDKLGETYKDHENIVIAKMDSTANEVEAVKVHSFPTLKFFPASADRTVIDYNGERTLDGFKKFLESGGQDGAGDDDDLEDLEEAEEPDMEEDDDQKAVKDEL

[10] = viability loss in HEK293 cells – cell-based, plate reader, cherry-picked samples, cytotoxicity control, dose response (AID 743446); format: functional
[11] = blockers of FN fibrillogenesis by fibroblasts – AH1F cells, Alexa488-FN fluorescence, cherry-picks, dose response (AID 1035475); format: functional, cell-based
[12] = viability loss in HepG2 hepatoma cells – cell-based, cherry-picks, set 5, cytotoxicity control, dose response (AID 1053118); format: functional
[13] = blockers of bursicon-stimulated LGR2 cAMP reporter – cell-based, HEK293, CRE-luciferase reporter, cherry pick, set 2, dose response (AID 743343); format: functional;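 note: transfected cells were stimulated with diluted bursicon conditioned medium after compound addition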
[14] = viability loss in HEK293 kidney cells – cell-based, cherry-picks, set 5, cytotoxicity control, dose response (AID 1053117); format: functional
[15] = toxicity toward HepG2 liver cells – cell-based, plate reader, cherry-pick, antagonist series, cytotoxicity control, dose response (AID 743416); format: functional
[16] = A549 cell cytotoxicity, dose response, cytotoxicity control, plate reader, cherry-pick, antagonist series (AID 743412); format: functional, cell-based
[17] = blockade of melanocortin 4 receptor signaling – cell-based, plate reader, cherry pick, counter-screen for LGR2 antagonist project, dose response (AID 743444); format: functional;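 note: transfected HEK 293 cells stimulated with alpha-MSH peptide; potency of inhibitors of the alpha-MSH evoked signal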
[18] = viability loss in A549 lung cancer cells – cell-based, cherry-picks, […], cytotoxicity control, dose response (AID 1053119); format: functional
Protein Wnt-3a = Protein Wnt-3a (Mus musculus, UniProt P27467); test: SAR analysis of small molecule antagonists of Gli-SUFU in a Wnt3a luminescent reporter assay.; format: functional
Protein Wnt-3a, sequence (P27467 whole entry): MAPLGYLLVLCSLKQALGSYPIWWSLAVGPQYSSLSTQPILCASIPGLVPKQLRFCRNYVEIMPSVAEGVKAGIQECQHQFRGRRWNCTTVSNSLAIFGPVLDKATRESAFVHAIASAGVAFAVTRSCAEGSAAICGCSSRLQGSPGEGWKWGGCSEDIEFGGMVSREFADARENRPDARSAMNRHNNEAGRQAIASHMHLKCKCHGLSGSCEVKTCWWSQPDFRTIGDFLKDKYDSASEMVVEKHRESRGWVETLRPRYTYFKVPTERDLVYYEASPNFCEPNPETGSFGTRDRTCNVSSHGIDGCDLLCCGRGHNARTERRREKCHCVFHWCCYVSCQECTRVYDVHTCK

[19] = T. cruzi growth inhibition in host cells, dose response, cell-based, plate reader, dry powder, set 2 (AID 652275); format: functional
[20] = viability of BHK-21 cells – cell-based, secondary screen, cytotoxicity control for flavivirus guanylyltransferase probe project (AID 624078); format: functional
[21] = inhibitors of non-replicating M. tuberculosis, dose response, luciferase, dry powder (AID 651620); format: functional; conditions: Mycobacterium tuberculosis
[22] = inhibitors of non-replicating M. tuberculosis, dose response, luciferase, dry powder (AID 651619); format: functional; conditions: Mycobacterium tuberculosis
[23] = kidney cell line viability loss – HEK293T, luminescence plate reader, powder samples, set 4, cytotoxicity control, dose response (AID 651863); format: functional, cell-based; conditions: HEK293

With `C[C@@H]1CN([C@H](C)CO)C(=O)c2cc(NS(=O)(=O)c3ccccc3)ccc2O[C@@H](C)CCCCO[C@H]1CN(C)Cc1ccc(C(F)(F)F)cc1` the AC50 (Paired box protein Pax-8) was 5.82 µM (active), the AC50 [1] was 17.6 µM (active) and the AC50 [2] was 55.1 µM (active). For the same compound, the AC50 [3] was 35.8 µM (active), the AC50 [4] was 15.7 µM (active) and the AC50 [5] was 29.8 µM (active).
With `CCOc1ccc(S(=O)(=O)NCc2ccncc2)cc1Cl` the AC50 [6] was 92.5 nM (active) and 125 nM (active) and the AC50 [7] was > 70 µM (inactive).
With `C[C@@H]1CCCCO[C@H](CN(C)Cc2ccccc2)[C@H](C)CN([C@H](C)CO)C(=O)c2cc(NC(=O)CCC(F)(F)F)ccc2O1` the AC50 [8] was > 30 µM (inactive).
For `CCNC(=O)C1(CCOc2ccccc2)CCN(Cc2ccc(O)c(Cl)c2)CC1`, the AC50 [9] was > 30 µM (inactive).
In the case of `C[C@@H]1CN([C@H](C)CO)C(=O)c2cccc(NC(=O)Nc3ccc(C(F)(F)F)cc3)c2O[C@@H]1CN(C)C(=O)Nc1cccc2ccccc12`, the AC50 [10] is reported as 14.8 µM (active), the AC50 [11] is reported as 7.47 µM (active) and the AC50 [12] is reported as 32.5 µM (active). For the same compound, the AC50 [13] was 19.4 µM (active), the AC50 [14] was 29.2 µM (active) and the AC50 [15] was 19.6 µM (active). The AC50 [16] was 16.4 µM (active), the AC50 [17] was 14.3 µM (active) and the AC50 [18] was 24.3 µM (active).
For `N#Cc1cccc(C(=O)Nc2cc(N3CCCCC3)ncn2)c1`, the IC50 (Protein Wnt-3a) was > 21.8 µM (inactive).
In the case of `CC(C)N1C[C@H](C)[C@@H](CN(C)Cc2ccc(F)cc2)Oc2c(C(=O)Nc3ccncc3)cccc2C1=O`, the AC50 [19] is reported as 0.313 µM (active).
In the case of `Cc1cc(F)ccc1S(=O)(=O)Nc1cc(SCC(=O)O)c(O)c2ccccc12`, the CC50 [20] is reported as 10.7 µM (active).
With `c1ccc(-c2nnc(SCc3cccnc3)o2)cc1` the IC90 [21] was 8 µM (active) and the IC90 [22] was 8 µM (active).
With `CC(=O)Nc1cc(NS(=O)(=O)c2c(C)cc(C)cc2C)c2ccccc2c1O` the AC50 [23] was 32.3 µM (active).
